Results: publication PMC7488365 (Acta Pharmaceutica Sinica. B, 2019)
Read-outs that look alike come from different tables or passages of the source.

Assays:
USP28 [1] = biological target: T1, USP28 (Homo sapiens, UniProt Q96RU2); assay: biochemical; type: biochemical; settings: for Inhibition rate at 12.5 μmol/L (%): 12.5 μmol/L compound, Ub-AMC substrate; for inhibition at 12.5 µM: read-out: Inhibition rate at 12.5 μmol/L (%)
T1 sequence (Q96RU2 1-700): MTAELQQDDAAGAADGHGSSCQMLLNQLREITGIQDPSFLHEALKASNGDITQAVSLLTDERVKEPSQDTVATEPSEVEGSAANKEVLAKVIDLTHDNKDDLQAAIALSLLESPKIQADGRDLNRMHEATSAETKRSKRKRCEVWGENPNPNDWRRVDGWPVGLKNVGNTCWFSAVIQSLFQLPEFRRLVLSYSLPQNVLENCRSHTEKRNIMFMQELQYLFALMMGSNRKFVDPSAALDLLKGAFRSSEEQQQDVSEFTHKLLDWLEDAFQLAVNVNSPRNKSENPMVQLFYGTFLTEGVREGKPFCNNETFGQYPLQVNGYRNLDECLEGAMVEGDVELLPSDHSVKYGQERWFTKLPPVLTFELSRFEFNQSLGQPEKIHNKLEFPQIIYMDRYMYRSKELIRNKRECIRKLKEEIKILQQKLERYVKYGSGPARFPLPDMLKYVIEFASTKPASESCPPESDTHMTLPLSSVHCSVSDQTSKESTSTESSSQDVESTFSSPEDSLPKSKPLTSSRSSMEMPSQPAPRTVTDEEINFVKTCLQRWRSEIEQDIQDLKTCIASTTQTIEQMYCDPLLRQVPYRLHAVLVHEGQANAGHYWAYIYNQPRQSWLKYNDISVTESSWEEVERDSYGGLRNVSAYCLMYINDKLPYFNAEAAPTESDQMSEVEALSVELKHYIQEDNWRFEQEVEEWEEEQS

USP28 [2] = biological target: T1, USP28; settings: read-out: EC50 USP28 inhibition; cited from earlier work
HGC-27 cells = assay: MTT cell viability assay, HGC-27; settings: Homo sapiens, HGC-27, 72 h, read-out: IC50 cell viability HGC-27
MGC-803 cells = assay: cells; settings: Homo sapiens, MGC-803, 72 h, read-out: IC50 cell viability MGC-803
USP28 [3] = biological target: T1, USP28; assay: Bio-layer interferometry; type: binding
[4] = system: USP28, LSD1 and total c-Myc in HGC-27 cells; assay: Western blotting of USP28, LSD1 and total c-Myc; type: cell-based, human; settings: HGC-27, 3 h, even at 40 μmol/L
GES-1 cells = assay: cells; settings: Homo sapiens, GES1, 72 h, read-out: IC50 cell viability GES-1
MKN45 cells = assay: cells; settings: Homo sapiens, MKN-45, 72 h, read-out: IC50 cell viability MKN45

| SMILES | IC50 (USP28 [1]) [µM] | Inhibition rate at 12.5 μmol/L (%) (USP28 [1]) | inhibition at 12.5 µM (USP28 [1]) [%] | other results |
| --- | --- | --- | --- | --- |
| N#CSc1cc(SC#N)c(N)nc1N [PR-619] |  |  |  | EC50 (USP28 [2]): ~8 µM |
| CCCSc1nc(NCCN)c2nnn(CCNC(=O)OC(C)(C)C)c2n1 [Compound 13, Tert-butyl(2-(7-((2-aminoethyl)amino)-5-(propylthio)-3H-[1,2,3]triazolo[4,5-d]pyrimidin-3-yl)ethyl)carbamate] | > 100 | Inactive |  |  |
| CCCSc1nc(NCc2ccco2)c2nnn(Cc3ccccc3)c2n1 [Compound 5, 3-Benzyl-N-(furan-2-ylmethyl)-5-(propylthio)-3H-[1,2,3]triazolo[4,5-d]pyrimidin-7-amine] |  |  | 45.6 | IC50 (USP28 [1]; read-out: IC50 against USP28, Ub-AMC 100 nmol/L, USP28 62.5 nmol/L): 14.2 ± 0.19 µM |
| CCCSc1nc(NCCNC(C)=O)c2nnn(Cc3ccc(Cl)cc3)c2n1 [Compound 20, N-(2-((3-(4-Chlorobenzyl)-5-(propylthio)-3H-[1,2,3]triazolo[4,5-d]pyrimidin-7-yl)amino)ethyl)acetamide] | > 100 | Inactive |  |  |
| CCCSc1nc(NCCNC(=O)OC(C)(C)C)c2nnn(Cc3ccccc3)c2n1 [Compound 9, Tert-butyl(2-((3-benzyl-5-(propylthio)-3H-[1,2,3]triazolo[4,5-d]pyrimidin-7-yl)amino)ethyl)carbamate] | > 100 | Inactive |  |  |
| CCCSc1nc(NC2CC2)c2nnn(Cc3ccccc3)c2n1 [Compound 3, 3-Benzyl-N-cyclopropyl-5-(propylthio)-3H-[1,2,3]triazolo[4,5-d]pyrimidin-7-amine] | > 100 | Inactive |  |  |
| CCCSc1nc(NCCN)c2nnn(CCO)c2n1 [Compound 12, 2-(7-((2-Aminoethyl)amino)-5-(propylthio)-3H-[1,2,3]triazolo[4,5-d]pyrimidin-3-yl)ethan-1-ol] | > 100 | Inactive |  | IC50 (HGC-27 cells): > 100 µM; IC50 (MGC-803 cells): > 50 µM; Binding to USP28 (in words) (USP28 [3]; BLI): failed to bind; protein levels of USP28, LSD1 and total c-Myc [4]: remained unchanged; IC50 (GES-1 cells): > 100 µM; IC50 (MKN45 cells): > 50 µM |
| CCCSc1nc(NCCCN2CCOCC2)c2nnn(Cc3ccccc3)c2n1 [Compound 4, 3-Benzyl-N-(3-morpholinopropyl)-5-(propylthio)-3H-[1,2,3]triazolo[4,5-d]pyrimidin-7-amine] | > 100 | Inactive |  |  |
| CCCSc1nc(NCCN(C)C)c2nnn(Cc3ccccc3)c2n1 [Compound 10, N^1-(3-Benzyl-5-(propylthio)-3H-[1,2,3]triazolo[4,5-d]pyrimidin-7-yl)-N^2,N^2-dimethylethane-1,2-diamine] | > 100 | Inactive |  |  |

The next lines start with results.

| IC50 (USP28 [1]) [µM] | Inhibition rate at 12.5 μmol/L (%) (USP28 [1]) | inhibition at 12.5 µM (USP28 [1]) [%] | SMILES | other results |
| --- | --- | --- | --- | --- |
| 27.6 ± 2.2 |  |  | CCCSc1nc(NCCN)c2nnn(CCCc3ccccc3)c2n1 [Compound 14, N^1-(3-(3-Phenylpropyl)-5-(propylthio)-3H-[1,2,3]triazolo[4,5-d]pyrimidin-7-yl)ethane-1,2-diamine] |  |
| 6 ± 0.05 |  | 76.7 | CCCSc1nc(NCCN)c2nnn(Cc3ccc(Br)cc3)c2n1 [Compound 18, N^1-(3-(4-Bromobenzyl)-5-(propylthio)-3H-[1,2,3]triazolo[4,5-d]pyrimidin-7-yl)ethane-1,2-diamine] |  |
| 10.2 ± 1.3 |  | 50 | CCCSc1nc(N2CCNCC2)c2nnn(Cc3ccccc3)c2n1 [Compound 7, 3-Benzyl-7-(piperazin-1-yl)-5-(propylthio)-3H-[1,2,3]triazolo[4,5-d]pyrimidine] |  |
| 34.8 ± 1.27 |  | 35 | Cc1nc(NCCN)c2nnn(Cc3ccc(Cl)cc3)c2n1 [Compound 23, N^1-(3-(4-Chlorobenzyl)-5-methyl-3H-[1,2,3]triazolo[4,5-d]pyrimidin-7-yl)ethane-1,2-diamine] |  |
| 8.55 ± 0.87 |  | 61.7 | CCCSc1nc(NCCNC)c2nnn(Cc3ccccc3)c2n1 [Compound 11, N^1-(3-Benzyl-5-(propylthio)-3H-[1,2,3]triazolo[4,5-d]pyrimidin-7-yl)-N^2-methylethane-1,2-diamine] |  |
| 12.3 ± 0.27 |  | 62.2 | NCCNc1ncnc2c1nnn2Cc1ccc(Cl)cc1 [Compound 21, N^1-(3-(4-Chlorobenzyl)-3H-[1,2,3]triazolo[4,5-d]pyrimidin-7-yl)ethane-1,2-diamine] |  |
| 14.5 ± 0.19 |  | 59.9 | C#CCSc1nc(NCCN)c2nnn(Cc3ccc(Cl)cc3)c2n1 [Compound 24, N^1-(3-(4-Chlorobenzyl)-5-(prop-2-yn-1-ylthio)-3H-[1,2,3]triazolo[4,5-d]pyrimidin-7-yl)ethane-1,2-diamine] |  |
| 24.8 ± 0.58 |  | 34 | CCCSc1nc(NCCN)c2nnn(CCc3c[nH]c4ccccc34)c2n1 [Compound 15, N^1-(3-(2-(1H-Indol-3-yl)ethyl)-5-(propylthio)-3H-[1,2,3]triazolo[4,5-d]pyrimidin-7-yl)ethane-1,2-diamine] |  |
| 28.7 ± 1.36 |  | 36.2 | CCCSc1nc(NCCN)c2nnn(Cc3ccc(O)cc3)c2n1 [Compound 16, 4-((7-((2-Aminoethyl)amino)-5-(propylthio)-3H-[1,2,3]triazolo[4,5-d]pyrimidin-3-yl)methyl)phenol] |  |
| 13.21 ± 0.03 |  | 56 | CCCSc1nc(NCCN)c2nnn(Cc3ccccc3Cl)c2n1 [Compound 17, N^1-(3-(2-Chlorobenzyl)-5-(propylthio)-3H-[1,2,3]triazolo[4,5-d]pyrimidin-7-yl)ethane-1,2-diamine] |  |
| 4.34 ± 0.3 |  | 80 | CCCSc1nc(NCCN)c2nnn(Cc3ccccc3)c2n1 [Compound 8, N^1-(3-benzyl-5-(propylthio)-3H-[1,2,3]triazolo[4,5-d]pyrimidin-7-yl)ethane-1,2-diamine] | Kd (USP28 [3]): 0.09 µM |
| 23.3 ± 0.59 |  | 45 | NCCNc1nc(SCc2ccccc2)nc2c1nnn2Cc1ccc(Cl)cc1 [Compound 22, N^1-(5-(Benzylthio)-3-(4-chlorobenzyl)-3H-[1,2,3]triazolo[4,5-d]pyrimidin-7-yl)ethane-1,2-diamine] |  |
| 20.5 ± 1.45 |  | 23.1 | CCCSc1nc(NCc2cccnc2)c2nnn(Cc3ccccc3)c2n1 [Compound 6, 3-Benzyl-5-(propylthio)-N-(pyridin-3-ylmethyl)-3H-[1,2,3]triazolo[4,5-d]pyrimidin-7-amine] |  |
